The values below come from patent US10538544B1, “Method for administering cisplatin and a thiocyanate complex to treat ovarian cancer” (priority 2018, dated 2020).

The test system of series [1] is A2780 S (cisplatin sensitive) human ovarian tumor cell line. Put plainly: MTT assay, cell viability, 72 h, A2780 S. Type of series: cell-based. The settings on record: read-out: IC50 Values against A2780 S. The procedure:
(§1) MTT assay. The IC50 values in 72 hours of the compounds on human ovarian tumor cell lines, A2780 S (cisplatin sensitive) and A2780 CR (cisplatin resistance) were identified by cell viability test. 6000 cells per well in 100 μL cell media were seeded. After 24 h, all supernatant was aspirated out. Then 200 μL of drug solution is added to the first column of each well, and 100 μL of medium were added into the remaining well. The 100 μL of drug solution from first column was taken and mix well with the next column by repeated pipetting using a multichannel pipettor. The last two columns were leaved without drug addition to serve as blank control. After 72 h, supernatants in each well was replaced with 100 μL of 10% MTT (3-(4,5-dimethylthiazol-2-yl)-2,5-diphenyltetrazolium bromide) tetrazolium reduction assay solution, and incubated for at least 45 minutes at 37° C. After aspirating incubated solution, 100 μL of DMSO was added into each well to dissolve formazan crystals. The plates were then read using plate reader at 570 nm. The in vitro cytotoxicity of three platinum complexes (1), (2) and (3) was evaluated against a pair human ovarian tumor cell lines, A2780 S (cisplatin sensitive) and A2780 CR (cisplatin resistant). For comparison, anticancer activity of cisplatin was also evaluated under the same conditions. The IC50 values and cell viability curves are shown in Table 3 and FIG. 5 respectively.
In general terms: Tetrazolium dyes change colour on reduction, which living cells bring about.

The test system of series [2] is A2780 CR (cisplatin resistant) human ovarian tumor cell line. The series can be described thus: MTT assay, cell viability, 72 h, A2780 CR. Format: cell-based. As to conditions: for IC50: MTT, 72 h, A2780 CR (cisplatin resistant), read-out: IC50 Values against A2780 CR; for Resistance factor: calculated from IC50 in A2780 CR and A2780 S. The procedure:
as §1

For series [3] the following is noted: background, literature; cited from earlier work.
The conditions of series [4]: background, literature; cited from earlier work. The source holds these as a separate data set.

As usually defined, the IC50 is the concentration at which inhibition is half-maximal. As for `CC(C)N(C(=S)[S-])C(C)C.CC(C)N(C(=S)[S-])C(C)C.[Pt+2]` [(3), [Pt(S2CN^i Pr2)2]], the IC50 in series [1] was 8.92 ± 0.58 µM. In series [2], the IC50 came to 8.83 ± 0.83 µM and the Resistance factor is recorded as 1.00.

Take `N.N.[Cl][Pt][Cl]` [Cisplatin]: the IC50 in series [1] worked out at 0.33 ± 0.011 µM. For the same compound, in series [2], the IC50 worked out at 6.37 ± 1 µM and the Resistance factor is reported as 19.20.

With [Pt(S2CNBn2)2].py [(2)], the IC50 in series [1] is 16.4 ± 1.35 µM; in series [2], 15 ± 1.21 µM. For the same compound, the Resistance factor in series [2] was 0.92.

For [Pt(ESDT)(Py)Cl], the “effectiveness as antiproliferative agent compared with cisplatin” value in series [3] is given as “more effective as antiproliferative agent than cisplatin”. Further, the “renal toxicity compared with cisplatin” value in series [4] was “much lower renal toxicity”.

As for `CC(C)CN(CC(C)C)C(=S)[S-].CC(C)CN(CC(C)C)C(=S)[S-].[Pt+2]` [(1), [Pt(S2CN^i Bu2)2]], in series [1], the IC50 worked out at 5 ± 0.097 µM. Further, the “cytotoxicity compared with cisplatin against A2780 CR cells” value in series [2] (A2780 CR cells, in words) is given as “better cytotoxicity than cisplatin”. In series [2], the IC50 stood at 5.91 ± 0.92 µM and the Resistance factor is given as 1.18.
